Source: US10653698B2, “Methods of improving myocardial performance in Fontan patients using udenafil compositions” (priority 2014, dated 2020)

System: adolescents with single ventricle physiology after Fontan palliation
Test: Echocardiographic assessment of ventricular performance (blood pool MPI, tissue Doppler MPI, average isovolumic contraction and relaxation)
Type: in vivo, human
Parameters: Average Isovolumic Contraction, Baseline measurement / Average Isovolumic Contraction, Follow-up measurement: unit not given here
Conditions: for Average Isovolumetric Relaxation, Follow-up measurement / Average Isovolumetric Relaxation, Baseline measurement: in ms (unit assumed)
Description: Ventricular performance and cardiac contractility are important measurements that can reveal impairment of cardiovascular health before overt heart failure is present. Ventricular performance can be assessed using echocardiographic methods and quantified via a myocardial performance index or MPI. MPI is an index that combines systolic and diastolic function. Specifically, MPI is defined as the sum of isovolumic contraction time and isovolumic relaxation time divided by the ejection time.
Various versions of MPI are known in the art, and each version of MPI may be used to assess ventricular performance. For instance, MPI indices may include but are not limited to blood pool MPI, tissue doppler MPI, average isovolumetric contraction, and average isovolumetric relaxation.
The primary outcome of ventricular performance with assessed using echocardiographic methods and measured according to a myocardial performance Index (MPI). The MPI is a ventricular geometry-independent measure of combined systolic and diastolic ventricular performance (Charles S. Kleinman et al, 2008—Health and Fitness). It is obtained by indexing the sum of isovolumetric contraction and relaxation time to ejection time.
Table 18 summarizes results for the key outcome from the Echocardiographic Assessment of Ventricular Performance—Blood Pool MPI. Out of the 30 subjects enrolled in the treatment arms of the trial, 27 subjects had paired measurements. The structure of the table is similar to the one for exercise variables.
Tables 19-21 and FIGS. 9-15 report similar results for three other versions of MPI: Tissue Doppler MPI, and Average Isovolumetric Contraction and Relaxation.

How did the “Average Isovolumetric Relaxation, Difference, FU − BL” value (37.5 mg daily, N 5) turn out when `CCCOc1ccc(S(=O)(=O)NCCC2CCCN2C)cc1-c1nc2c(CCC)nn(C)c2c(=O)[nH]1` (stereo not shown) [udenafil] was run?
Its value is 9.0 ± 11.5.

What about the “Average Isovolumic Contraction, Difference, FU − BL” value (37.5 mg daily, N 5) of the same molecule?
The value was −3.5 ± 50.0.

And the “Average Isovolumic Contraction, Follow-up measurement” value (37.5 mg daily, N 5)?
Its value is 86.4 ± 22.7.

What about the “Blood Pool MPI, Difference, FU − BL” value (37.5 mg daily, N 5) of the same molecule?
The value was −0.052 ± 0.166.

What about the “Blood Pool MPI, Follow-up measurement” value (37.5 mg daily, N 5) of the same molecule?
Its value is 0.504 ± 0.187.

And the “Tissue Doppler MPI, Difference, FU − BL” value (37.5 mg daily, N 5)?
Its value is −0.052 ± 0.398.

What about the “Tissue Doppler MPI, Follow-up measurement” value (37.5 mg daily, N 5) of the same molecule?
The value was 0.637 ± 0.206.

And the “Average Isovolumetric Relaxation, Follow-up measurement” value (37.5 mg daily, N 5)?
The value was 94.0 ± 26.7.

And the “Average Isovolumic Contraction, Baseline measurement” value (37.5 mg daily, N 6)?
Its value is 99.2 ± 50.7.

And the “Blood Pool MPI, Baseline measurement” value (37.5 mg daily, N 6)?
Its value is 0.537 ± 0.304.

What about the “Tissue Doppler MPI, Baseline measurement” value (37.5 mg daily, N 6) of the same molecule?
Its value is 0.701 ± 0.417.

What about the “Average Isovolumetric Relaxation, Baseline measurement” value (37.5 mg daily, N 6) of the same molecule?
The value was 83.8 ± 16.1.

And the “Average Isovolumetric Relaxation, Difference, FU − BL” value (37.5 mg twice daily, N 6)?
The value was 0.8 ± 21.2.

And the “Average Isovolumic Contraction, Baseline measurement” value (37.5 mg twice daily, N 6)?
The value was 109.4 ± 51.1.

And the “Average Isovolumic Contraction, Difference, FU − BL” value (37.5 mg twice daily, N 6)?
Its value is −5.8 ± 25.7.

What about the “Average Isovolumic Contraction, Follow-up measurement” value (37.5 mg twice daily, N 6) of the same molecule?
Its value is 103.6 ± 32.4.

What about the “Blood Pool MPI, Baseline measurement” value (37.5 mg twice daily, N 6) of the same molecule?
The value was 0.496 ± 0.150.

And the “Blood Pool MPI, Difference, FU − BL” value (37.5 mg twice daily, N 6)?
The value was −0.003 ± 0.102.

And the “Blood Pool MPI, Follow-up measurement” value (37.5 mg twice daily, N 6)?
The value was 0.494 ± 0.087.

What about the “Tissue Doppler MPI, Baseline measurement” value (37.5 mg twice daily, N 6) of the same molecule?
Its value is 0.818 ± 0.361.

And the “Tissue Doppler MPI, Difference, FU − BL” value (37.5 mg twice daily, N 6)?
The value was −0.089 ± 0.142.

And the “Tissue Doppler MPI, Follow-up measurement” value (37.5 mg twice daily, N 6)?
Its value is 0.729 ± 0.230.

What about the “Average Isovolumetric Relaxation, Baseline measurement” value (37.5 mg twice daily, N 6) of the same molecule?
The value was 100.8 ± 32.3.

What about the “Average Isovolumetric Relaxation, Follow-up measurement” value (37.5 mg twice daily, N 6) of the same molecule?
The value was 101.6 ± 40.0.

And the “Average Isovolumetric Relaxation, Difference, FU − BL” value (87.5 mg daily, N 6)?
The value was −6.9 ± 10.1.

And the “Average Isovolumic Contraction, Baseline measurement” value (87.5 mg daily, N 6)?
Its value is 122.4 ± 36.7.

And the “Average Isovolumic Contraction, Difference, FU − BL” value (87.5 mg daily, N 6)?
The value was −7.4 ± 26.5.

What about the “Average Isovolumic Contraction, Follow-up measurement” value (87.5 mg daily, N 6) of the same molecule?
Its value is 115.0 ± 32.9.

And the “Blood Pool MPI, Baseline measurement” value (87.5 mg daily, N 6)?
Its value is 0.588 ± 0.158.

What about the “Blood Pool MPI, Difference, FU − BL” value (87.5 mg daily, N 6) of the same molecule?
Its value is −0.076 ± 0.144.

What about the “Blood Pool MPI, Follow-up measurement” value (87.5 mg daily, N 6) of the same molecule?
The value was 0.512 ± 0.163.

And the “Tissue Doppler MPI, Baseline measurement” value (87.5 mg daily, N 6)?
The value was 0.804 ± 0.118.

What about the “Tissue Doppler MPI, Difference, FU − BL” value (87.5 mg daily, N 6) of the same molecule?
Its value is −0.089 ± 0.131.

What about the “Tissue Doppler MPI, Follow-up measurement” value (87.5 mg daily, N 6) of the same molecule?
The value was 0.716 ± 0.142.

What about the “Average Isovolumetric Relaxation, Baseline measurement” value (87.5 mg daily, N 6) of the same molecule?
The value was 93.4 ± 11.0.

What about the “Average Isovolumetric Relaxation, Follow-up measurement” value (87.5 mg daily, N 6) of the same molecule?
The value was 86.4 ± 15.3.

What about the “Average Isovolumetric Relaxation, Difference, FU − BL” value (87.5 mg twice daily, N 4) of the same molecule?
The value was 5.2 ± 12.6.

What about the “Average Isovolumic Contraction, Baseline measurement” value (87.5 mg twice daily, N 4) of the same molecule?
Its value is 84.1 ± 20.3.

What about the “Average Isovolumic Contraction, Difference, FU − BL” value (87.5 mg twice daily, N 4) of the same molecule?
The value was 4.1 ± 12.1.

And the “Tissue Doppler MPI, Baseline measurement” value (87.5 mg twice daily, N 4)?
The value was 0.540 ± 0.019.

What about the “Tissue Doppler MPI, Difference, FU − BL” value (87.5 mg twice daily, N 4) of the same molecule?
The value was 0.060 ± 0.068.

And the “Average Isovolumetric Relaxation, Baseline measurement” value (87.5 mg twice daily, N 4)?
Its value is 72.3 ± 10.5.

And the “Blood Pool MPI, Baseline measurement” value (87.5 mg twice daily, N 5)?
The value was 0.548 ± 0.136.

What about the “Blood Pool MPI, Difference, FU − BL” value (87.5 mg twice daily, N 5) of the same molecule?
Its value is −0.118 ± 0.090.

And the “Average Isovolumic Contraction, Follow-up measurement” value (87.5 mg twice daily, N 6)?
The value was 83.8 ± 26.4.

What about the “Blood Pool MPI, Follow-up measurement” value (87.5 mg twice daily, N 6) of the same molecule?
Its value is 0.410 ± 0.078.

And the “Tissue Doppler MPI, Follow-up measurement” value (87.5 mg twice daily, N 6)?
Its value is 0.638 ± 0.168.

And the “Average Isovolumetric Relaxation, Follow-up measurement” value (87.5 mg twice daily, N 6)?
Its value is 82.4 ± 11.4.

What about the “Average Isovolumetric Relaxation, Difference, FU − BL” value (125 mg daily, N 5) of the same molecule?
The value was −5.4 ± 11.1.

And the “Average Isovolumic Contraction, Difference, FU − BL” value (125 mg daily, N 5)?
Its value is −8.0 ± 24.6.

What about the “Average Isovolumic Contraction, Follow-up measurement” value (125 mg daily, N 5) of the same molecule?
The value was 150.5 ± 60.5.

What about the “Blood Pool MPI, Difference, FU − BL” value (125 mg daily, N 5) of the same molecule?
The value was −0.054 ± 0.180.

What about the “Blood Pool MPI, Follow-up measurement” value (125 mg daily, N 5) of the same molecule?
Its value is 0.696 ± 0.202.

And the “Tissue Doppler MPI, Difference, FU − BL” value (125 mg daily, N 5)?
Its value is −0.074 ± 0.141.

What about the “Tissue Doppler MPI, Follow-up measurement” value (125 mg daily, N 5) of the same molecule?
The value was 0.822 ± 0.271.

And the “Average Isovolumetric Relaxation, Follow-up measurement” value (125 mg daily, N 5)?
The value was 96.8 ± 17.4.

What about the “Average Isovolumic Contraction, Baseline measurement” value (125 mg daily, N 6) of the same molecule?
Its value is 152.4 ± 64.4.

What about the “Blood Pool MPI, Baseline measurement” value (125 mg daily, N 6) of the same molecule?
The value was 0.728 ± 0.155.

And the “Tissue Doppler MPI, Baseline measurement” value (125 mg daily, N 6)?
Its value is 0.861 ± 0.323.

And the “Average Isovolumetric Relaxation, Baseline measurement” value (125 mg daily, N 6)?
Its value is 99.5 ± 25.0.

And the “Average Isovolumetric Relaxation, Difference, FU − BL” value (All subjects, N 26)?
Its value is 0.1 ± 14.4.

And the “Average Isovolumic Contraction, Difference, FU − BL” value (All subjects, N 26)?
The value was −4.6 ± 28.3.

And the “Tissue Doppler MPI, Difference, FU − BL” value (All subjects, N 26)?
The value was −0.056 ± 0.198.

And the “Blood Pool MPI, Difference, FU − BL” value (All subjects, N 27)?
The value was −0.059 ± 0.134.

What about the “Average Isovolumic Contraction, Baseline measurement” value (All subjects, N 28) of the same molecule?
Its value is 115.6 ± 50.5.

And the “Average Isovolumic Contraction, Follow-up measurement” value (All subjects, N 28)?
Its value is 107.1 ± 41.3.

And the “Blood Pool MPI, Follow-up measurement” value (All subjects, N 28)?
Its value is 0.517 ± 0.165.

And the “Tissue Doppler MPI, Baseline measurement” value (All subjects, N 28)?
The value was 0.760 ± 0.299.

What about the “Tissue Doppler MPI, Follow-up measurement” value (All subjects, N 28) of the same molecule?
Its value is 0.707 ± 0.201.

What about the “Average Isovolumetric Relaxation, Baseline measurement” value (All subjects, N 28) of the same molecule?
Its value is 91.2 ± 22.2.

What about the “Average Isovolumetric Relaxation, Follow-up measurement” value (All subjects, N 28) of the same molecule?
Its value is 92.0 ± 23.8.

And the “Blood Pool MPI, Baseline measurement” value (All subjects, N 29)?
Its value is 0.581 ± 0.197.

What about the “Improvement in Blood Pool MPI” value (some patients, baseline to day 5) of the same molecule?
Its value is no more than 21.5%.
